Assay results taken from patent publication US20190055517A1, “Cell Line of M2c Macrophage and Its Applications” (National Pingtung University of Science and Technology, priority 2017, published 2019).

Assays:
[1] = system: Raw264.7 macrophages; test: H2O2 induction of apoptotic cells (annexin-V / 7-AAD flow cytometry); type: cell-based, murine; conditions: 1.5 mM H2O2 versus 0.5 and 1 mM, 12 hours, FIG. 19
Description: Inducing apoptotic cells: minor changes were made from steps of obtaining apoptotic cells based on previous studies (Piao et al., 2011 and Fong et al 2007), detailed steps comprising: culture 1.5×10^6 RAW264.7 macrophages with DMEM medium containing 10% FBS in incubator (37° C., 5% CO2). After culturing overnight, treat with 0.5, 1, 1.5 mM H2O2 respectively in DMEM for 12 hours. Next, remove the DMEM medium containing H2O2 and wash the cells with PBS buffer, then use micropipette to transfer cells to 15 ml centrifuge tube and centrifuge cells at 4° C. for 5 mins at rotating speed of 500×g. Remove the supernatant and resuspend the cells with 95 μl […]. Following that, dye the cells with fluorescence marker annexin-V and 7-AAD (BD Bioscience) for 20 mins on ice, avoiding light. After marking the cells, use flow cytometry (FACS BD ARIA II) to detect fluorescence performance. Analysed by software CellQuest (BD Bioscience). If the cells were positive for annexin-V and negative for 7-AAD, the cells will be identified as early apoptotic cells; if the cells were positive for annexin-V and positive for 7-AAD, the cells would be identified as late apoptotic cells.

[2] = system: murine M2 macrophage; test: Macrophage phenotype by flow cytometry (CD86, CD206) after drug-induced differentiation; type: cell-based; conditions: conditions of chart 2, p<0.05, FIG. 3
Description: (§1) Use PBS containing 0.5% BSA to flush out bone marrow cells from murine (C57BL/6J, 8-20 weeks, Taiwan National Laboratory Animal Center) femur, then use Ficoll-Hypaque (GE healthcare, SWEDEN) to isolate monocytes.
(§2) Then, incubate 2×10^6 monocytes in 50 ng/ml M-CSF contained RPMI 1640 (10% FCS) medium under 37° c., 5% CO2 for seven days to induce M2 macrophage polarization. On the eighth day, collect 2×10^5 M2 macrophage and incubate them in RPMI 1640 (10% FCS) medium with Baicalin (50 μM, Tokyo Chemical Industry, JAPAN) for 24 hours. Baicalin will induce M2 macrophage to differentiate into M2C macrophage.
Embodiment 1 is prepared by the steps described above, isolate monocytes from murine bone marrow and use M-CSF to induce differentiation of M2 macrophage, and then use baicalin to induce M2C macrophage polarization. In comparison 1, incubate murine M2 macrophage in RPMI 1640 (10% FCS) containing LPS (lipopolysaccharide, 1 μg/ml, Sigma-Aldrich) for 2 hours. In comparison 2, incubate murine M2 macrophage in medium containing IL-4 ([…] Guidance System, Cambridge, UK) for 24 hours. The control group of M2 macrophage is incubated in RPMI 1640 (10% FCS) without any drugs. The conditions are shown below in chart 2.
After induced differentiation is complete, use flow cytometry to analyse the macrophage phenotype, in the meantime, also use real time PCR (qPCR) to observe mRNA expression level of each gene.
(§3) FIG. 2˜4 show results of macrophage phenotypes analysed by flow cytometry.

[3] = system: murine M2 macrophage; test: Phagocytosis of FITC-Latex beads with PE-anti-MERTK staining (flow cytometry, fluorescence microscopy); type: cell-based; conditions: fluorescence microscope, PE-MERTK, FIG. 18
Description: In this example, experiment was performed to evaluate the effect of baicalin induced differentiated […] macrophages in promoting phagocytosis. Treatment conditions of drugs in each group is listed in chart 2, and control group is cultured in RPMI1640 (10% FCS) without any drugs. After treatment, collect 5×10^5 treated cells respectively and add 50 μl FITC-Latex beads (Phagocytosis assay kit (IgG FITC), Cayman Chemical, USA.) to perform phagocytosis experiment for 24 hours, and then use PE-anti-MERTK antibody to mark the cells and observe the fluorescence expression with flow cytometry.

[4] = system: monocytes from murine bone marrow; test: M-CSF induced M2 polarization of bone marrow monocytes (flow cytometry CD11b, CD206, CD80); type: cell-based; conditions: 50 ng/ml M-CSF, treated for 7 days, p<0.05, FIG. 2
Description: as §1, §2, §3

OO [Embodiment H2O2, H2O2]
percentage of apoptotic cells [1]: higher percentage of apoptotic cells

lipopolysaccharide [LPS, reference compound]
percentage of M1 macrophage (CD86+CD206-) [2]: higher | MERTK fluorescence distribution of cells after phagocytosing FITC-Latex beads [3]: comparatively weaker

B1: IL-4: cytokine, 10 ng/ml, 24 hours, comparison drug to induce differentiation (protein, UniProt P05112 25-153, looked up)
Interleukin-4: HKCDITLQEIIKTLNSLTEQKTLCTELTVTDIFAASKNTTEKETFCRAATVLRQFYSHHEKDTRCLGATAQQFHRHKQLIRFLKRLDRNLWGLAGLNSCPVKEANQSTLENFLERLKTIMREKYSKCSS
percentage of M2 macrophage (CD86-CD206+) [2]: higher

B2: macrophage colony-stimulating factor (protein, UniProt P09603 33-554, looked up)
Macrophage colony-stimulating …: EEVSEYCSHMIGSGHLQSLQRLIDSQMETSCQITFEFVDQEQLKDPVCYLKKAFLLVQDIMEDTMRFRDNTPNAIAIVQLQELSLRLKSCFTKDYEEHDKACVRTFYETPLQLLEKVKNVFNETKNLLDKDWNIFSKNCNNSFAECSSQDVVTKPDCNCLYPKAIPSSDPASVSPHQPLAPSMAPVAGLTWEDSEGTEGSSLLPGEQPLHTVDPGSAKQRPPRSTCQSFEPPETPVVKDSTIGGSPQPRPSVGAFNPGMEDILDSAMGTNWVPEEASGEASEIPVPQGTELSPSRPGGGSMQTEPARPSNFLSASSPLPASAKGQQPADVTGTALPRVGPVRPTGQDWNHTPQKTDHPSALLRDPPEPGSPRISSLRPQGLSNPSTLSAQPQLSRSHSSGSVLPLGELEGRRSTRDRRSPAEPEGGPASEGAARPLPRFNSVPLTDTGHERQSEGSFSPQLQESVFHLLVPSVILVLLAVGGLLFYRWRRRSHQEPQRADSPLEQPEGSPLTQDDRQVELPV
notes: 50 ng/ml, induces M2 macrophage polarization of monocytes
percentage of cells expressing CD11b and CD206 at the same time (CD11b+CD206+) [4]: highest percentage
